Experimental findings from PubChem BioAssay AID2823 (Broad Institute, 2010) are described below.

The structures appear in SMILES notation. The source made the active and inactive calls. How the calls were made is not given here. Bounds are passed on as bounds.

The assay addresses RanGTP-importin-beta complex (human Ran / KPNB1). Kind of assay: Ran–importin-beta interaction inhibitors, confirmation, biochemical, FRET, CFP/YFP, cell-free homogeneous (AID 2823). The note with it: CFP-Ran/YFP-importin-beta FRET ratio.
For `O=C(NC1=NCCS1)c1cc(-c2cccnc2)nc2ccccc12`, the IC50 (usually the point on the concentration scale where inhibition reaches its midpoint) is > 50 µM (inactive).

Consider `CC(=O)N1CCc2c(sc(NC(=O)CS(=O)(=O)c3ccc(F)cc3)c2C(N)=O)C1`, for which the IC50 is > 50 µM (inactive).

For `Cc1ccc2nc(N3CCN(C(=O)c4ccc(F)cc4)CC3)c(C#N)cc2c1`, the IC50 was 23.3 µM.

In the case of `CCOc1ccc(Nc2c3ccccc3nc3ccccc23)cc1`, the IC50 is > 50 µM (inactive).

On to `NNc1nc2sc3c(c2c(=O)n1C1CCCCC1)CCN(Cc1ccccc1)C3`, for which the half-inhibitory concentration (IC50) was 2.69 µM.

Regarding `CC1CCCCN1Cc1c(O)ccc2c(=O)c(-c3nc4ccccc4s3)coc12` (stereo unspecified), the IC50 was less than 0.38 µM.

`COc1cc(NC(=O)c2cc(-c3cccs3)on2)cc(OC)c1OC`: the IC50 was > 50 µM (inactive).

Consider `CCN1CCN(c2cc(=O)n(Cc3ccc(F)cc3)c(=O)[nH]2)CC1`, for which the IC50 was > 50 µM (inactive).

As for `O=C(Nc1cnc2ccccc2c1)c1cccc(-n2cnnn2)c1`, the IC50 is > 50 µM (inactive).

On to `CC1CC(C)CN(c2cc(=O)n(Cc3ccc(F)cc3)c(=O)[nH]2)C1` (stereo unspecified), for which the IC50 is > 50 µM (inactive).

Consider `CC(C)c1cc(N2CCN(C(=O)c3ccco3)CC2)n2c(nc3ccccc32)c1C#N`, for which the IC50 is 24.7 µM.

As to `N=c1oc2ccccc2cc1-c1nc(-c2ccc(Cl)cc2)cs1`, the IC50 was 34.2 µM.

Take `CCOC(=O)/C(C#N)=C/c1c(N2CCN(c3ccc(OC)cc3)CC2)nc2c(C)cccn2c1=O`: the IC50 was > 50 µM (inactive).

As to `Cc1ccc(C(=O)NNc2c3ccccc3nc3ccccc23)cc1`, the IC50 is > 50 µM (inactive).

As to `CCOC(=O)c1c(N)n(CCCOC(=O)c2ccco2)c2nc3ccccc3nc12`, the IC50 was 23.7 µM.

On to `CCOC(=O)c1c(NC(=O)Nc2ccc(F)cc2)sc2c1CCN(C)C2`, for which the IC50 was > 50 µM (inactive).

For the compound `Cc1ccc(-n2c(O)c(/C=N/N3CCCCCC3)c(=O)[nH]c2=O)cc1C`, the IC50 was > 50 µM (inactive).

On to `CC1Cc2cc(S(=O)(=O)NCc3ccccc3)ccc2N1C(=O)C1CC1` (stereo unspecified), for which the IC50 is > 50 µM (inactive).

For `Cc1sc2nc(SCC(=O)NCc3ccco3)n(-c3ccccc3)c(=O)c2c1C`, the IC50 is > 50 µM (inactive).

As to `Cc1c(CC(=O)N2CCN(C(=O)C3COc4ccccc4O3)CC2)c(=O)oc2c(C)c(O)ccc12` (stereo unspecified), the IC50 is 20.8 µM.

For the compound `COc1ccccc1CNC(=O)COC(=O)Cc1ccc(Cl)cc1`, the IC50 was > 50 µM (inactive).

As to `CCc1ccc(-c2nc(CSCC(=O)N3CCN(c4ccccn4)CC3)c(C)o2)cc1`, the IC50 was > 50 µM (inactive).

With `CCN1C(=O)C2(C(C#N)=C(N)Oc3n[nH]c(C(C)C)c32)c2ccccc21` (stereo unspecified), the IC50 is > 50 µM (inactive).

For `COC(=O)Nc1ccc(NC(C)=O)cc1`, the IC50 is > 50 µM (inactive).

For the compound `Cc1cccc(OCC(=O)NNc2c3ccccc3nc3ccccc23)c1`, the IC50 was > 50 µM (inactive).

On to `CC(=O)O/N=C/c1c(Cl)n(C)c2ccccc12`, for which the IC50 is > 50 µM (inactive).

On to `CS(=O)(=O)c1nsc2nc(=O)c(/C=C3\C=Nc4ccccc43)c(N)n12`, for which the IC50 was 15.1 µM.

`C=CCn1c(SCC(=O)N2CCCCC2)nnc1-c1ccncc1`: the IC50 was > 50 µM (inactive).

Regarding `N#C/C(=C\c1ccc(N2CCOCC2)o1)C(=O)NC1CCCCC1`, the concentration for half-maximal inhibition (IC50) was 2.76 µM.

Regarding `Cc1ccc(NC(=S)NCCN2CCOCC2)cc1`, the IC50 was > 50 µM (inactive).

Regarding `COc1ccc(-c2ccc(-c3noc(-c4ccccc4C)n3)c(OC)n2)cc1`, the IC50 is > 50 µM (inactive).

On to `COC(=O)Cc1c(C)c2cc(Cl)c(OC(=O)c3ccco3)cc2oc1=O`, for which the IC50 was 14.2 µM.

In the case of `Cc1ccc(S(=O)(=O)/C(C#N)=C/c2c(N3CCC(C(N)=O)CC3)nc3ccccn3c2=O)cc1`, the IC50 was > 50 µM (inactive).

Turning to `CCCC(C)c1nnc(NC(=O)C2CC(=O)N(c3ccc(OCC)cc3)C2)s1` (stereo unspecified), the IC50 is > 50 µM (inactive).

`CCCc1noc(-c2cccc([N+](=O)[O-])c2)n1`: the IC50 is > 50 µM (inactive).

Consider `Cc1c(CCC(=O)NC2CC2)c(=O)oc2c(C)c(O)ccc12`, for which the IC50 is 20.8 µM.

With `O=c1c2cc(NC(=S)N3CCC(N4CCCCC4)CC3)ccc2nc2n1CCCCC2`, the IC50 is > 50 µM (inactive).

Take `Cc1ccc(N2CC(=O)N(NC(=O)c3sc4nc(C)cc(C)c4c3N)CC2=O)cc1`: the IC50 is > 50 µM (inactive).

For the compound `CCOC(=O)c1c(NC(=O)Cc2ccccc2)sc2c1CCN(CC)C2`, the IC50 is > 50 µM (inactive).

Take `CC(C)Cc1nnc(NC(=O)Cc2cccs2)s1`: the IC50 was > 50 µM (inactive).

`CCN1C2=C(C(=O)CCC2)C(c2ccc(O)c(Br)c2)C2=C1CCCC2=O`: the IC50 was 7.86 µM.

`CCC(c1nnnn1C1CCCC1)N1CCC(C(N)=O)CC1` (stereo unspecified): the IC50 is > 50 µM (inactive).

In the case of `O=C(COC(=O)c1ccc2ccccc2c1)NCCCc1ccccc1`, the IC50 is > 50 µM (inactive).

As for `COc1cc(-c2nc3cnccn3c2Nc2ccc(C(C)C)cc2)ccc1O`, the IC50 was > 50 µM (inactive).

As to `COc1ccc(CCn2c(=N)c(C(=O)NCC3CCCO3)cc3c(=O)n4cccc(C)c4nc32)cc1` (stereo unspecified), the IC50 is 11.5 µM.

Turning to `Clc1ccc(/C=C\c2nccc3c2[nH]c2ccccc23)cc1`, the IC50 was > 50 µM (inactive).

In the case of `Cc1ccc2nc(N3CCN(Cc4nnnn4Cc4ccccc4)CC3)c(C#N)cc2c1`, the IC50 is 23 µM.

Regarding `CC(C)C1C2=C(CC(C)(C)CC2=O)ON1c1ccccc1` (stereo unspecified), the IC50 was > 50 µM (inactive).

In the case of `Cc1cc(C)c2c(N)c(C(=O)NN3CC(=O)N(c4ccccc4F)CC3=O)sc2n1`, the IC50 is > 50 µM (inactive).

On to `Cc1cccc(NC(=O)c2cc3c(s2)-c2c(C)cccc2OC3)n1`, for which the IC50 was 7.45 µM.

Consider `O=C(Nc1ccnc(-c2ccncc2)n1)c1ccc(Cl)cc1`, for which the IC50 is > 50 µM (inactive).

Take `CCC(=O)Nc1c(S(=O)(=O)c2ccccc2)c2nc3ccccc3nc2n1Cc1ccccc1`: the IC50 was 20.9 µM.

`CCOC(=O)C1CCN(c2cc(=O)n(C3CCCCC3)c(=O)[nH]2)CC1`: the IC50 was > 50 µM (inactive).

`COc1ccc(C(=O)/C=C/Nc2cccc(C)n2)cc1OC`: the IC50 was 22.8 µM.

`CC(C)Sc1nc(N2CCOCC2)c2c(c1C#N)CC(C)(C)N(C)C2`: the 50% inhibitory concentration (IC50) is 46.2 µM.

For the compound `N#CCCN(C(=O)Nc1ccc(Cl)cc1)c1ccccc1`, the IC50 was > 50 µM (inactive).

`Cn1c(N)c(C(=O)COC(=O)C2(c3ccc(F)cc3)CCCC2)c(=O)n(C)c1=O`: the IC50 was > 50 µM (inactive).

As to `Cc1c(O)ccc2c3c(c(=O)oc12)CCC(C)C3` (stereo unspecified), the IC50 is 11.9 µM.

On to `COc1ccc(-c2c(C)c3ccc(O)cc3oc2=O)cc1`, for which the IC50 was 36.3 µM.

`C=CCN1C=CC(=CC=C(C#N)C#N)C=C1`: the IC50 is 29.1 µM.

In the case of `O=c1[nH]c(Nc2ccccn2)cc2ccccc12`, the IC50 was > 50 µM (inactive).

As to `CCOC(=O)c1sc(NC(=O)CSc2nc(C)cc(C)n2)c(C#N)c1C`, the IC50 is > 50 µM (inactive).

`N#CC1=C(N)SC(N)=C(C#N)C1c1cccc(O)c1`: the IC50 is > 50 µM (inactive).

For the compound `CCOc1ccc(C(=O)c2cc3ccc(O)cc3oc2=O)cc1`, the IC50 was 9.4 µM.

For the compound `CN(C)S(=O)(=O)c1ccc(N2CCCC2)c(C(=O)NC(c2ccccc2)c2ccccc2)c1`, the IC50 is > 50 µM (inactive).

In the case of `CN(CCOc1ccccc1)CC(=O)Nc1ccc(Cl)cc1[N+](=O)[O-]`, the IC50 was > 50 µM (inactive).

Consider `CC1=NN(C(=O)Cn2nc([N+](=O)[O-])cc2C)C(O)(C(F)(F)F)C1` (stereo unspecified), for which the IC50 was > 50 µM (inactive).

`CCCn1cnc2cc(NCc3ccc(Br)cc3)ccc21`: the IC50 was > 50 µM (inactive).

Regarding `CCOC(=O)CSc1nnc(CSc2nc3sc4c(c3c(=O)[nH]2)CCCC4)n1-c1ccccc1`, the IC50 was > 50 µM (inactive).

For the compound `NC(N)=N/N=C/c1ccc(N(c2ccccc2)c2ccccc2)cc1`, the IC50 was 16.8 µM.

For `COc1ccccc1S(=O)Cc1ccc(C(=O)O)o1` (stereo unspecified), the IC50 is > 50 µM (inactive).

For the compound `CCOC(=O)N1CCN(c2cc(=O)n(Cc3ccc(F)cc3)c(=O)[nH]2)CC1`, the IC50 is > 50 µM (inactive).

As to `CCOC(=O)/C(C#N)=C1/C=Nc2ccccc2N1`, the IC50 was > 50 µM (inactive).

Regarding `Cc1nc2ccccc2n1CC(=O)N1CC(=O)Nc2ccccc21`, the IC50 was > 50 µM (inactive).

In the case of `CCOCCCNC(=O)/C(C#N)=C/c1cc(Br)c(O)c(Br)c1`, the IC50 is 12.5 µM.

Take `COc1ccc(-n2cnc3cc(NCc4ccco4)ccc32)cc1`: the IC50 was > 50 µM (inactive).

Turning to `Nc1ccc(C2(c3ccc(N)cc3)CN3CCC2CC3)cc1`, the IC50 was > 50 µM (inactive).

In the case of `Cc1cc(C)c2c(n1)nn1c(NCCCN(C)C)cc(C)nc21`, the IC50 was 22.3 µM.

As to `CN(C)Cc1c(O)ccc2c3c(c(=O)oc12)CCCCC3`, the IC50 was 24.6 µM.

Consider `COc1ccc(C(=O)C[n+]2ccc(N)c(C)c2C)cc1`, for which the IC50 is > 50 µM (inactive).

With `CC1CCN(c2nc3ccccc3nc2C(C#N)C(=O)OC2CCCCC2)CC1` (stereo unspecified), the IC50 was > 50 µM (inactive).

With `O=C1CC(/C=C/c2ccco2)=Nc2ccccc2N1`, the IC50 is > 50 µM (inactive).

In the case of `Cc1nc2ccc(NC(=O)c3nn(CC(C)C)c(=O)c4ccccc34)cc2s1`, the IC50 is > 50 µM (inactive).

For the compound `O=C(Cn1c2ccccc2c(=O)c2ccccc21)N/N=C/c1ccc(N2CCCC2)c([N+](=O)[O-])c1`, the IC50 was > 50 µM (inactive).

Consider `CC(C)Cc1ccc(CN2CCC(n3nccc3NC(=O)C3CCCC3)CC2)cc1`, for which the IC50 was > 50 µM (inactive).

As to `CCCCOc1ccc(OCCSc2nc3ccccc3n2CC(=O)O)cc1`, the IC50 was > 50 µM (inactive).

For `CCN(CC)Cc1c(O)c(Cl)cc2c(C)c(C)c(=O)oc12`, the half-maximal inhibitory concentration (IC50) was 21.1 µM.

In the case of `O=C(COC(=O)c1cccnc1Nc1ccccc1F)NCCN1C(=O)CSC1=O`, the IC50 is > 50 µM (inactive).

In the case of `Cc1c(O)c(CN2CCCCC2)cc2c3c(c(=O)oc12)CCC3`, the IC50 was 9.04 µM.

For `COc1ccc(/C=C2\SC(=S)N(CC(=O)OCC(=O)Nc3ccc(C)cc3Cl)C2=O)cc1`, the IC50 is > 50 µM (inactive).

Take `Cc1ccc2cc(C#N)c(NCCNC(=O)C3CCC3)nc2c1C`: the IC50 is > 50 µM (inactive).
